The subject of one data set is U-87 MG. Put plainly: Antiproliferative activity against human U-87 MG cells incubated for 48 hrs by MTT assay. The format is functional, cell-based, U-87MG ATCC. (In general: Tetrazolium assays rely on reduction of a dye to a coloured formazan, in cell work by metabolically active cells.)
For data set [1], the system named is BE(2)-C. The experiment in a line: Antiproliferative activity against human BE2C cells incubated for 48 hrs by MTT assay. Format: functional, cell-based.
The next data set concerns HCT-116. Put plainly: Antiproliferative activity against human HCT-116 cells incubated for 48 hrs by MTT assay. The format is functional, cell-based. To be noted: HCT-116, 48 h.
Another data set deals with A549. The experiment in a line: Antiproliferative activity against human A549 cells incubated for 48 hrs by MTT assay. The following applies: A549, 48 h. Format: functional, cell-based.
For another data set, the target named is Histone deacetylase 1 (Homo sapiens, UniProt Q13547). Put plainly: Inhibition of HDAC1 (unknown origin).
Sequence of Histone deacetylase 1 (Q13547 whole entry): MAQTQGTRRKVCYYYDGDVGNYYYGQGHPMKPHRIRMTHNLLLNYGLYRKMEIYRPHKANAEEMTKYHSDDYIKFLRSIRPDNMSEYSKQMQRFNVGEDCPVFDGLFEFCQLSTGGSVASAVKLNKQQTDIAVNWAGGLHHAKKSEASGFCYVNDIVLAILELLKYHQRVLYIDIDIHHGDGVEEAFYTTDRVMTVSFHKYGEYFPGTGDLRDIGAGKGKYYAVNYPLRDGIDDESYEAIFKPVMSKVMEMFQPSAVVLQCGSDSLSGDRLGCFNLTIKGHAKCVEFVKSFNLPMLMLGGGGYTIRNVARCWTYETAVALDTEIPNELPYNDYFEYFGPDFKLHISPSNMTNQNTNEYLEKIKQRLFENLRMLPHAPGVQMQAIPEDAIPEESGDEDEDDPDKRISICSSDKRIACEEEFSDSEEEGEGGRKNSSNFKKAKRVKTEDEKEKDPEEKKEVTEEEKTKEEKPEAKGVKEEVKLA
In data set [2] the target is T1, Protein deacetylase HDAC6 (Homo sapiens, UniProt Q9UBN7).
T1 sequence (Q9UBN7 whole entry): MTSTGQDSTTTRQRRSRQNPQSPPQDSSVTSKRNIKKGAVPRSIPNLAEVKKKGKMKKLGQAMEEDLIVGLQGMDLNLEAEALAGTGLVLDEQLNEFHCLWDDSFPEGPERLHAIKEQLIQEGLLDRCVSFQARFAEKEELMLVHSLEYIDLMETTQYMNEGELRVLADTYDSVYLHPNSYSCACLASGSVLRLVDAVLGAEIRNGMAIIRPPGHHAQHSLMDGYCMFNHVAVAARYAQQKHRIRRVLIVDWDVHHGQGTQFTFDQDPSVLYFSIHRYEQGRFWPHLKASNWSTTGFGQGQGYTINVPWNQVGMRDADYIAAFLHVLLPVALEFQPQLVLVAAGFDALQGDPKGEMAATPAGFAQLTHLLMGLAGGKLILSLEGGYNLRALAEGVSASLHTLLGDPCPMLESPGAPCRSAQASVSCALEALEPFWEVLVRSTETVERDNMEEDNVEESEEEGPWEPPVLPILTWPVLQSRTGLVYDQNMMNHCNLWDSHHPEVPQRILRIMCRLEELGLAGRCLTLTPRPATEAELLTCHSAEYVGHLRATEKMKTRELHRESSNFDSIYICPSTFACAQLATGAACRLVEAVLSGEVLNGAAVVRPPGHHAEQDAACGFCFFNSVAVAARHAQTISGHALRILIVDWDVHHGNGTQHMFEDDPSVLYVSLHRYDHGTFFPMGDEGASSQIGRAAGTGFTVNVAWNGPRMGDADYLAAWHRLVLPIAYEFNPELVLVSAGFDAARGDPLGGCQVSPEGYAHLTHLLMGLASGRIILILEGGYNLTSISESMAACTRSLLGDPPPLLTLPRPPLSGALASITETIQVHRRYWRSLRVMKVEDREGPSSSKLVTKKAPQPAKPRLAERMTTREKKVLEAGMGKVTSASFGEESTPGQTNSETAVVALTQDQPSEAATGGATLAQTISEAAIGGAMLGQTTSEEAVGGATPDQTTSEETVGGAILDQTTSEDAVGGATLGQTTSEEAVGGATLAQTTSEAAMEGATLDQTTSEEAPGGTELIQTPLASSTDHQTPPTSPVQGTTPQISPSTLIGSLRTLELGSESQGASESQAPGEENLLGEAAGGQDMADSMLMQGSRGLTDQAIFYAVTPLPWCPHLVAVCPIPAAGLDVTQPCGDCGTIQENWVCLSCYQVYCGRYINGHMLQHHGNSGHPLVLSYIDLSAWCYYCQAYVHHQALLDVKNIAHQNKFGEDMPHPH
Put plainly: Inhibition of HDAC6 (unknown origin).

A further data set deals with T2, Histone deacetylase 8 (Homo sapiens, UniProt Q9BY41).
T2 sequence (Q9BY41 whole entry): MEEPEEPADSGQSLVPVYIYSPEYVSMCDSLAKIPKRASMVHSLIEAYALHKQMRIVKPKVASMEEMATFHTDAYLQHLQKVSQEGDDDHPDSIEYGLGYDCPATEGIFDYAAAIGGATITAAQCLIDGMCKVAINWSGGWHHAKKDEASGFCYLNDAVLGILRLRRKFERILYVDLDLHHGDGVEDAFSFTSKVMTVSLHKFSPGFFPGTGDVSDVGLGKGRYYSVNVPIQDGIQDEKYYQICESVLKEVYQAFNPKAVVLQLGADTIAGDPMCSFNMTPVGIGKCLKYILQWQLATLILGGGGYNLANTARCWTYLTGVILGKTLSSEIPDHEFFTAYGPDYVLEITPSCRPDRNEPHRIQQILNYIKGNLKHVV
Put plainly: Inhibition of HDAC8 (unknown origin).

The target in the next data set is Tubulin (Sus scrofa, UniProt P02554+P02550). The experiment in a line: Inhibition of tubulin polymerization of pig brain by absorbance based assay.
Data set [3] concerns BE(2)-C. The experiment in a line: Antitumor activity against human BE2C cells xenografted in nude mouse assessed as tumor growth inhibition at 5 mg/kg, ip treated for every 3 days relative to control. The format is functional. The following applies: 72 h, time 3 day, read-out: TGI.
Data set [4] in a line: Metabolic stability in human liver microsomes assessed as compound remaining incubated for 10 mins. The format is ADME, Microsome. To be noted: read-out: Stability.
Data set [5] can be described thus: Metabolic stability in human liver microsomes assessed as compound remaining incubated for 60 mins. The format is ADME, Microsome. To be noted: microsomes, 1 h. A general note: Liver microsomes are vesicles of endoplasmic reticulum, rich in cytochrome P450 enzymes.
Data set [6] is described as follows: Metabolic stability in human liver microsomes assessed as compound remaining incubated for 20 mins. The format is ADME, Microsome. The following applies: liver microsomes, read-out: Stability.
Data set [7] can be described thus: Metabolic stability in human liver microsomes assessed as compound remaining incubated for 5 mins. Format: ADME, Microsome. To be noted: read-out: Stability.
A short description of data set [8]: Aqueous solubility of compound at 1 mg incubated for 10 mins. The format is physicochemical.
A short description of data set [9]: Metabolic stability in human liver microsomes assessed as half life. Format: ADME, Microsome.
A short description of data set [10]: Metabolic stability in human liver microsomes assessed as compound remaining incubated for 30 mins. The format is ADME, Microsome. To be noted: microsomes, 0.5 h.
Data set [11] can be described thus: Metabolic stability in human liver microsomes assessed as intrinsic clearance. The format is ADME, Microsome. To be noted: read-out: CLH.

≈ marks a conversion by molar mass, not a printed value.

As a reminder, the IC50 is the concentration that gives 50% inhibition. In general, solubility refers to the dissolved amount per volume that the medium holds.

For the molecule `COc1ccc([C@H]2[C@H](CNC(=O)CCCC(=O)NO)C(=O)N2c2cc(OC)c(OC)c(OC)c2)cc1O`, the IC50 with U-87 MG, in the data set on BE(2)-C [1], with HCT-116 and in the data set with A549 was above 10000 nM in each case.
As for `C=C1C(=O)N(c2cc(OC)c(OC)c(OC)c2)[C@H]1c1ccc(OC)c(/C=C/C(=O)NO)c1`, the IC50 was determined as 72 nM with U-87 MG, 35 nM in the data set with BE(2)-C [1], 60 nM with HCT-116 and 84 nM in the data set on A549.
`COc1ccc([C@H]2[C@H](COC(=O)CCC(=O)NO)C(=O)N2c2cc(OC)c(OC)c(OC)c2)cc1O`: the IC50 was above 10000 nM in the data set on U-87 MG; 43 nM in the data set with BE(2)-C [1]; 301 nM on Histone deacetylase 1; 2410 nM in data set [2]; above 10000 nM with HCT-116; 288 nM at Histone deacetylase 8. In the data set on A549, this molecule displayed a half-maximal inhibitory concentration (IC50) of 16 nM.
For the molecule `COc1ccc([C@H]2[C@H](COC(=O)c3ccc(C(=O)O)cc3)C(=O)N2c2cc(OC)c(OC)c(OC)c2)cc1O`, the IC50 is 432 nM in the data set on U-87 MG, 776 nM in the data set on BE(2)-C [1], 397 nM in the data set on HCT-116 and 326 nM in the data set with A549.
In the same order, the values of `COc1ccc([C@H]2[C@H](CNC(=O)c3ccc(C(=O)NO)cc3)C(=O)N2c2cc(OC)c(OC)c(OC)c2)cc1O` are above 10000 nM, 303 nM, 500 nM and 479 nM.
In the same order, the values of `COc1ccc([C@H]2[C@H](CNC(=O)CCC(=O)NO)C(=O)N2c2cc(OC)c(OC)c(OC)c2)cc1O` are above 10000 nM, above 10000 nM, above 10000 nM and above 10000 nM.
Turning to `COc1ccc([C@H]2[C@H](C)C(=O)N2c2cc(OC)c(OC)c(OC)c2)cc1OCCCCC(=O)NO`, the half-inhibitory concentration (IC50) with U-87 MG is above 10000 nM; with BE(2)-C [1] it was 3970 nM; in the data set with HCT-116, above 10000 nM; in the data set on A549 it was 2340 nM.
For `C=C1C(=O)N(c2cc(OC)c(OC)c(OC)c2)[C@H]1c1ccc(OC)c(O)c1`, the IC50 in the data set on U-87 MG came out at 143 nM; in the data set with BE(2)-C [1], 186 nM; in the data set on HCT-116, 234 nM; against Tubulin, 6600 nM; with A549, 128 nM.
Consider `COc1ccc([C@H]2[C@H](C)C(=O)N2c2cc(OC)c(OC)c(OC)c2)cc1OCCCCCC(=O)NO`, for which the IC50 in the data set on U-87 MG is above 10000 nM; with BE(2)-C [1] it was 7690 nM; with HCT-116, 464 nM; in the data set on A549, 7820 nM.
On the same counts, the results for `COc1ccc([C@H]2[C@H](COC(=O)CCCC(=O)NO)C(=O)N2c2cc(OC)c(OC)c(OC)c2)cc1O` are above 10000 nM, above 10000 nM, above 10000 nM and above 10000 nM.
As to `CC(=O)O[C@H]1C(=O)[C@@]2(C)[C@H]([C@H](OC(=O)c3ccccc3)[C@]3(O)C[C@H](OC(=O)[C@H](O)[C@@H](NC(=O)c4ccccc4)c4ccccc4)C(C)=C1C3(C)C)[C@]1(OC(C)=O)CO[C@@H]1C[C@@H]2O` [PACLITAXEL], the inhibition in vivo at 5 mg/kg in the data set with BE(2)-C [3] was 44%.
Turning to `O=C(CCCCCCC(=O)Nc1ccccc1)NO` [VORINOSTAT], in [4], the remaining at 10 min came to 98.4%. In addition, the Stability in data set [5] was determined as 92.8%; in [10] it was 105.7%. For the same molecule, in data set [6], the remaining at 20 min came to 99%. For the same molecule, in data set [7], the remaining at 5 min came to 96.4%. Besides, the concentration in solution in data set [8] (solubility at 10 min) came to 91.7 µg/mL (≈ 347 µM). This molecule also yielded an IC50 with BE(2)-C [1] of 2110 nM. The t1/2 in [9] turned out to be 2.42 h. Moreover, in data set [11], the CLint scaled is below 8.6 mL/min/kg.
With `COc1ccc(/C=C\c2cc(OC)c(OC)c(OC)c2)cc1O` [COMBRETASTATIN A4], the concentration in solution in [8] (solubility at 10 min) was 1.04 µg/mL (≈ 3.29 µM).
`COc1ccc([C@H]2[C@@H](C)C(=O)N2c2cc(OC)c(OC)c(OC)c2)cc1/C=C/C(=O)NO`: the IC50 in the data set with U-87 MG amounted to 23 nM; in the data set on BE(2)-C [1], 317 nM; with HCT-116 it was 304 nM; in the data set on A549 it was 173 nM.
With `COc1ccc([C@H]2[C@H](C)C(=O)N2c2cc(OC)c(OC)c(OC)c2)cc1OCCCC(=O)NO`, the IC50 was 4400 nM with U-87 MG, 1810 nM in the data set with BE(2)-C [1], above 10000 nM in the data set with HCT-116 and 3650 nM in the data set on A549.
In the same order, the values of `COc1ccc([C@H]2[C@H](C)C(=O)N2c2cc(OC)c(OC)c(OC)c2)cc1OCC(=O)NO` are 56 nM, 30 nM, 82 nM and 54 nM.
`C=C1C(=O)N(c2cc(OC)c(OC)c(OC)c2)[C@H]1c1ccc(OC)c(/C=C/CC(=O)NO)c1`: the IC50 with U-87 MG worked out at 2140 nM; in the data set on BE(2)-C [1], 45 nM; with HCT-116, 620 nM; in the data set on A549, 1260 nM.

For the origin of these results see ChEMBL document CHEMBL5325505, “Discovery of chiral 1,4-diarylazetidin-2-one-based hydroxamic acid derivatives as novel tubulin polymerization inhibitors with histone deacetylase inhibitory activity” (Bioorg Med Chem, 2023).
